Laboratory results reported in paper PMC9866367 (Journal of medicinal chemistry, 2022).

Assays:
[1] = biological target: T1, purified human sAC protein (Homo sapiens, UniProt Q96PN6); assay: In vitro cyclase activity assay; assay type: biochemical
T1 sequence (Q96PN6 1-469): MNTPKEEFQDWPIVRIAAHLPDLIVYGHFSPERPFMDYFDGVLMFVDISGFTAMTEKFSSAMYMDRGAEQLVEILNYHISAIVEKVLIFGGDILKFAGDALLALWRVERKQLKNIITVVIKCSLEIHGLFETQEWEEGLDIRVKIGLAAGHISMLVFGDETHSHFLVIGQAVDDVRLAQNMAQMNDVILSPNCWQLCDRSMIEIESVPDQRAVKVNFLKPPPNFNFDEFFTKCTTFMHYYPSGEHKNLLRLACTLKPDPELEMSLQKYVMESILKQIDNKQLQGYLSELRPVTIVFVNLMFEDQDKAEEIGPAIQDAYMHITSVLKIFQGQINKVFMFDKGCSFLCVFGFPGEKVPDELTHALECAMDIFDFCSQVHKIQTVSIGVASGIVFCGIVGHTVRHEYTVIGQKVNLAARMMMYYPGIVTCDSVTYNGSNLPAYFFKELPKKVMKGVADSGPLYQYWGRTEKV

[2] = biological target: T2, recombinant purified His-tagged sACt protein (Homo sapiens, UniProt Q96PN6); assay: Binding kinetics via surface plasmon resonance; conditions: read-out: SPR Residence Time
T2 sequence (Q96PN6 1-469 limits assumed): T1 sequence (Q96PN6 1-469)

[3] = test system: 46 other relevant drug targets such as GPCRs, ion channels, and nuclear receptors; assay: Eurofins safety panel; conditions: Table S3
GSH = assay type: in vitro ADME; conditions: 5 μM compound, 5 mM GSH, up to 2 h
panel of 322 kinases = assay: Kinase panel; assay type: biochemical; conditions: Table S2
[4] = 50 mg/kg IP, male mice, 1 h post-dosing; cited from earlier work
Cytotoxicity = assay type: cell-based
[5] = In vivo pharmacokinetic analysis in mice; parameters: species or system male CD-1 mice
[6] = male, CD-1, mouse, plasma, iv, 2 mg/kg

SMILES: CN(C)C(=O)c1ccccc1Cc1cn(C)nc1-c1cc(Cl)nc(N)n1 [Compound 14]
- biochemical activity in words [1]: almost inactive

SMILES: Nc1nc(Cl)cc(-c2nn(C(F)F)cc2Cc2ccccc2OCC(=O)N2CCOCC2)n1 [Compound 24]
- residence time [2]: 8.07 min

SMILES: Nc1nc(Cl)cc(-c2nn(C(F)F)cc2Cc2ccccc2OCCN2CCOC[C@H]2CO)n1 [Compound 33, [(3R)-4-[2-[2-[[3-(2-Amino-6-chloro-pyrimidin-4-yl)-1-(difluoromethyl)pyrazol-4-yl]methyl]phenoxy]ethyl]morpholin-3-yl]methanol]
- activity against 46 other drug targets in Eurofins safety panel [3]: did not show appreciable activity
- glutathione reactivity (GSH; listed as TDI-11861): no evidence of adduct formation
- glutathione reactivity (GSH; listed as TDI-11861 (33)): low propensity at 5 μM
- activity against a panel of 322 kinases (panel of 322 kinases): did not show appreciable activity
- systemic level [4]: 7.04 µM
- cytotoxicity (Cytotoxicity): >20 µM
- cytotoxicity in words (Cytotoxicity; at 20 μM): no cytotoxicity
- unbound plasma exposure over cellular IC50 ([…]) ([5]; 50 mg/kg PO, CD-1 mice, out to 4 h): ~ 10 fold
- AUC(0-t) [5, 6]: 780 ± 110 µM·h
- clearance [5, 6]: 94 ± 12 mL/min/kg
- AUC(0-t) ([5]; male, CD-1, mouse, plasma, po, 10 mg/kg): 410 ± 57 µM·h
- AUC(0-t) ([5]; male, CD-1, mouse, plasma, po, 50 mg/kg): 5460 ± 1500 µM·h
